{"source": "patent US20100216706A1", "about": "“Ghrelin Protects Substantia Nigra Dopamine Neurons” (priority 2007, published 2010)", "key": {"[1]": {"system": "striatal dopamine", "assay": "Striatal dopamine after MPTP (HPLC)", "assay_type": "in vivo, mice", "details": "saline 14 days, MPTP on day 7", "protocol": "(§1) Control animals were given saline. Animals were sacrificed and perfused 7 days later and processed for immunohistochemistry or HPLC for dopamine (DA) and metabolites. n=8-10 for ghrelin wt and ko mice; n=6 for GHSR wt/wt, homo/wt and homo/TG.\nThe samples were subsequently thawed in 0.4 ml of chilled 0.1 M perchloric acid and sonicated. Aliquots were taken for protein quantification using a spectrophotometric assay. Other aliquots were centrifuged, and DA levels were measured in supernatants by high pressure liquid chromatography (HPLC) with electrochemical detection. Concentrations of DA and metabolites were expressed as ng/mg protein (mean±SEM).\n(§2) The observation that ghrelin promotes SNpc DA neuronal function, mitochondrial respiration and number raises the possibility that ghrelin may protect nigrostriatal dopaminergic system during increased cellular stress. […] In brief, mice were treated with daily IP injections of exogenous ghrelin (10 nmols) or saline for 14 days. Mice were injected immediately before the dark phase, and food was removed overnight since calorie intake and postprandial increases in glucose and insulin can suppress the action of ghrelin (Cummings et al., 2006, Physiol Behav 89: 71-84). Both ghrelin and saline treated mice were given 3 grams of standard chow the following morning at 9 am. […] After the subsequent 7 days of treatment (saline or ghrelin), TH immunoreactive neurons were counted blind by two independent researchers using the non-biased optical fractionator on the stereology program, Stereoinvestigator."}, "[2]": {"assay": "Body weight gain after MPTP in ghrelin wt and ko mice", "assay_type": "in vivo", "details": "from day 1 to day 7 after MPTP", "source_text": "as §1\nWt and ko mice treated with saline gained a similar amount of weight over the 7 days (wt saline 1.39±0.19 g vs ko saline 1.59±0.49 g)."}, "[3]": {"system": "TH neurons in the SNpc", "assay": "MPTP-induced TH cell loss in the SNpc (stereology, optical fractionator)", "assay_type": "in vivo, mice", "source_text": "as §1\nTH cell quantification: Free floating sections were stained with TH (1:5000, Chemicon International) and visualized with DAB using standard procedures.\nUnbiased stereology methods were used to quantify TH immunoreactive cells in the SNpc. Cells were visualized by a Zeiss microscope and relayed via a MicroFibre digital camera (www(dot)optronics(dot)com) to a computer where they were counted using the optical fractionator with the sophisticated Stereolnvestigator software (MicroBrightField, Williston, Vt., USA). Every fourth section was collected through the SNpc, and TH cells were counted in grids randomly positioned by the software in the outlined counting area through all optical planes, thus creating a 3 dimensional counting area.\nas §2"}, "[4]": {"molecular_target": "growth hormone secretagogue receptor 1a (GHSR) on SNpc dopamine neurons, species of the tissue not stated for the experiment (mouse and/or rat)", "assay": "cell-based or functional assay"}, "[5]": {"details": "Matsumoto et al., 2001; cited from earlier work"}}, "note": "Where “and” joins values, the source holds several entries; their conditions need not be identical. Identical values can stand only once. *: point of attachment. Octyl = CCCCCCCC*"}
{"molecule": "CN1CC=C(c2ccccc2)CC1", "note": "[MPTP, 1-methyl-4-phenyl-1,2,5,6 tetrahydropyridine]", "values": [{"measurement": "Loss of striatal dopamine vs controls, sal/MPTP", "setting": "[1]", "result": 65, "unit": "%"}, {"measurement": "Striatal dopamine concentration, sal/MPTP", "setting": "[1]; sal/sal 147.4±10.2", "result": "51.4±2.7", "unit": "ng/mg protein"}, {"measurement": "Body weight gain, ghrelin ko mice", "setting": "[2]; ko saline 1.59±0.49", "result": "1.37 ± 0.15", "unit": "g"}, {"measurement": "Body weight gain, ghrelin wt mice", "setting": "[2]; wt saline 1.39±0.19", "result": "2.16 ± 0.10 g and 2.17 ± 0.10 g"}, {"measurement": "TH-immunoreactive cells in SNpc, ghrelin−/− mice", "setting": "[3]; MPTP 30 mg/kg IP, 7 days, ko saline 8580±78", "result": "3691±550"}, {"measurement": "TH-immunoreactive cells in SNpc, ghrelin+/+ mice", "setting": "[3]; MPTP 30 mg/kg IP, 7 days, wt saline 9105±342", "result": "6688±610"}, {"measurement": "TH neurons in SNpc, GHSR homo/TG (TH-only) mice", "setting": "[3]; MPTP, homo/TG saline 12293±1123", "result": "9401±743"}, {"measurement": "TH neurons in SNpc, GHSR homo/wt (null) mice", "setting": "[3]; MPTP, homo/wt saline 11590±1133", "result": "6582±636"}, {"measurement": "TH neurons in SNpc, GHSR wt/wt mice", "setting": "[3]; MPTP, wt/wt saline 11902±713", "result": "9171±765"}, {"measurement": "Dopamine cell loss compared to controls, saline treatment after MPTP lesion", "setting": "[3]; saline 14 days, MPTP on day 7", "result": 49, "unit": "%"}, {"measurement": "Total TH neurons in SNpc, sal/MPTP", "setting": "[3]; wt mice, saline 14 days, MPTP 30 mg/kg IP on day 7, sal/sal 11283±342", "result": "5750±432"}]}
{"molecule": "ghrelin (unlabeled, Phoenix Pharmaceuticals) (peptide)", "values": [{"measurement": "action potential frequency of SNpc DA neurons (whole-cell current clamp, brain slices)", "setting": "[4]", "result": "132 % of control"}]}
{"molecule": "5-aminopentanoyl-Ser(Octyl)-Phe-Leu-aminoethylamide ({5‑aminopentanoyl}-Ser(Octyl)-Phe-Leu-aminoethylamide; also: acylation site at position 3; listed as Homo sapiens)", "values": [{"measurement": "Ghrelin activity", "setting": "[5]", "result": "potent ghrelin activity"}]}
